Peptide text beside a SMILES is read from it.
Row | melting point [°C] | Structure (SMILES)
1 | 97 | C=CC(C)(O)CCC1C(C)(O)CCC2C(C)(C)CCCC21C (stereo not given)
2 | 26 | CCC(C)(C)[C@H]1CC[C@H](O)CC1
3 | -98 | COC(C)=O
4 | 166 to 172 | COC(=O)C1=C(C)NC(C)=C([N+](=O)[O-])C1c1ccccc1C(F)(F)F (stereo not given)
5 | 172 | COC(=O)C1=C(C)NC(=O)NC1c1ccc(Cl)cc1 (stereo not given)
6 | 58 | Cc1c(Cl)ncnc1Cl
7 | 297 | CC(=O)C1(O)CCC2C3CC(C)C4=CC(=O)C=CC4(C)C3(F)C(O)CC21C (stereo not given)
8 | 35 | CCCCCCCCOc1ccc(C(=O)OC)cc1
9 | 189 to 192 | O=C(O)c1cc2ccccn2n1
10 | 108 | CC(C)NCC(O)c1ccc2ccccc2c1 (stereo not given)
11 | 221 to 222 | CC1(C)OC2C(CO)OC(n3cnc4c(N)ncnc43)C2O1 (stereo not given)
12 | 101 to 103 | Cc1cc(C(=O)N2CCN(c3ccccc3)CC2)no1
13 | 106 to 108 | O=S(=O)(Cl)c1ccc(-c2ccccc2)nc1
14 | -110 | FC(F)(Br)C(F)(F)Br
15 | 82 to 85 | CC(=O)c1ccc(N=C=S)cc1
16 | 56 | CCc1ccc(C(c2ccc(CC)cc2)C(Cl)Cl)cc1
17 | 163 | O=C(C=Cc1ccc([N+](=O)[O-])cc1)c1ccc(Cl)cc1
18 | 116 to 117 | Nc1nc(-c2ccc(F)c(F)c2)cs1
19 | 40.5 | CC1=CCC(C(=O)O)C1(C)C (stereo not given)
20 | 63.3 | CCCCCCCCCCCCCCCCCCCO
21 | 97 to 99 | COc1ccc(-c2ocnc2C(=O)Cl)cc1
22 | 240 to 243 | COC(=O)c1sc(N(C)C)c(C#N)c1N
23 | 52 to 54 | Cc1ccc(I)c([N+](=O)[O-])c1

Row | melting point [°C] | Structure (SMILES)
24 | 227 | Cc1ccc2c(c1)/C(=N/NC(N)=O)CC2C (stereo not given)
25 | 239 | NC(=O)c1cnn(CCO)c1N
26 | 247 | COC(=O)C1=C(C)NC(=S)NC1c1cccc([N+](=O)[O-])c1 (stereo not given)
27 | 54 to 56 | CC(=O)c1ccc(Oc2ccc(Cl)cc2)cc1Cl
28 | 44 | CO[C@](C(=O)O)(c1ccccc1)C(F)(F)F
29 | 105 | CN(CCO)c1nc2c(c(=O)n(C)c(=O)n2C)n1C
30 | 182 | COc1ccc(NS(=O)(=O)c2ccc(N)cc2)nn1
31 | 135 | COc1ccc(C=CC(=O)c2cccc(C(=O)C=Cc3ccc(OC)cc3)c2)cc1
32 | 150 to 152 | CCCCOc1cc(C(N)=O)ccc1OC
33 | 54 to 57 | C1=C[C@@H](OCc2ccccc2)[C@H](OCc2ccccc2)[C@@H](COCc2ccccc2)O1
34 | 144 | CCCCCOC(=O)C1=C(C)NC(=O)NC1c1ccc2c(c1)OCO2 (stereo not given)
35 | 241 to 243 | CN1CCN=C1C(C1=NCCN1C)C1=NCCN1C
36 | 133 to 135 | O=C(COc1ncn(-c2ccc(Cl)cc2)n1)NNC(=S)NCc1ccccc1
37 | 107 | CC(=O)Oc1c(-c2ccccc2)[nH]c2ccccc12
38 | 248 | CC(C)[C@H](NC(=O)CN)C(=O)O (H-Gly-Val-OH)
39 | 136 | CCCCC(=O)OCC(=O)C1(O)Cc2c(O)c3c(c(O)c2C(OC2CC(NC(=O)C(F)(F)F)C(O)C(C)O2)C1)C(=O)c1c(OC)cccc1C3=O (stereo not given)
40 | 107 to 109 | O=C(C1CCNCC1)N1CCCCC1
41 | 157 | Cc1cnc(O)c(Br)c1
42 | -22 | CCCCCCCCCCC1CCCC1
43 | 213 | O=[N+]([O-])c1ccc(-c2nn3c(C(F)(F)F)nnc3s2)cc1
44 | 37 | Cc1cccc(O)c1[N+](=O)[O-]
45 | 145 | O=C(NC1CCCCC1)c1ccccc1
46 | 275 | N#Cc1c2ncccc2c(=O)n2c1sc1ccccc12

Row | melting point [°C] | Structure (SMILES)
47 | 37 to 38 | O=Cc1ccc2occc2c1
48 | 323 | CC(=O)OC1CCC2(C)C(CCC3(C)C2C(=O)C=C2C4CC(C)(C(=O)O)CCC4(C)CCC23C)C1(C)C (stereo not given)
49 | 187 to 190 | CCOC(=O)NC(=S)Nc1sc2c(c1C(=O)OCC)CCCC2
50 | 98 to 100 | CC(C)(C)c1ccc(N)c(N)c1
51 | 169 | Cc1cc(O)c2ccccc2c1O
52 | 188 | N#Cc1cc(O)cc(O)c1
53 | -19 | ClCC=Cc1ccccc1
54 | 226 | CC(C)Nc1cccnc1N1CCN(C(=O)c2cc3cc(NS(C)(=O)=O)ccc3[nH]2)CC1
55 | 126 | Cc1cc(Sc2cc(C)c(O)c(C(C)(C)C)c2)cc(C(C)(C)C)c1O
56 | 114 to 115 | CC(=O)c1cc(-c2ccc(Cl)cc2)oc1C
57 | 133 | CC(=O)Nc1c(C)ccc2c1C(=O)c1ccccc1C2=O
58 | 179 | CN1Cc2c(N)cccc2C(c2ccccc2)C1 (stereo not given)
59 | 139 | O=C(O)c1ccccc1N/N=C1/C(=O)N(c2ccccc2)N=C1C(F)(F)F
60 | 292 | Nc1nn2c(C(F)(F)F)cc(=O)[nH]c2c1/N=N/c1ccc(S(=O)(=O)O)cc1
61 | 61 | CC(C)C(OC(=O)c1cccnc1)c1ccc(Cl)cc1 (stereo not given)
62 | 124 | CCOC(=O)CCc1ccc2c(c1)NC(=O)CC2
63 | 136 to 138 | Cc1cccc(C)c1C(N)=O
64 | 222 | Cc1c(C2(c3cc(Br)c(O)c(Br)c3C)OS(=O)(=O)c3ccccc32)cc(Br)c(O)c1Br
65 | 116 | O=C(c1ccccc1)c1nn(-c2ccccc2)c(-c2ccc([N+](=O)[O-])cc2)c1S(=O)(=O)c1ccccc1
66 | 101 | CC12CCC(C(CC(N)=O)C1=O)C2(C)C (stereo not given)
67 | 211 to 215 | Nc1ccc(C(=O)O)cc1O
68 | 35 | CCc1ccccc1Cc1ccccc1N
69 | 164 | CC1(C)C2CC3C(c4ccccc4)(C2=C(c2ccccc2)c2ccccc2)C31C (stereo not given)

Row | melting point [°C] | Structure (SMILES)
70 | 173 | O=C(C1=NOC2C(=O)N(c3ccccc3[N+](=O)[O-])C(=O)C12)c1ccc(Cl)cc1 (stereo not given)
71 | 11 | C1CCCCCCCC1
72 | 110 | Cc1sc(N)nc1-c1ccccc1
73 | 115 | CCOC(=O)c1sc(N)c(C(=O)OCC)c1C
74 | 100 | CC(C)NCC(O)COc1ccc(COCCOC(C)C)cc1 (stereo not given)
75 | 151 | O=c1nc2ccccc2nc(C(F)(F)F)c1NNc1ccc2ccccc2c1
76 | 208 to 212 | O=C(O)c1ncccc1O
77 | 135 | O=C(O)[C@@H]1CCN1C(=O)OCC1c2ccccc2-c2ccccc21
78 | 129 | COc1ccccc1C(N)=O
79 | 133 | Cc1ccc([N+](=O)[O-])cc1S(=O)(=O)O
80 | 184 | O=C(O)C=C(Br)C(=O)O
81 | 151 | COc1ccc2c(c1)CC(CCC(=O)O)(CCC(=O)O)C2=O
82 | 54 to 55 | OCC(I)CC(F)(F)C(F)(F)C(F)(F)C(F)(F)C(F)(F)C(F)(F)C(F)(F)C(F)(F)F (stereo not given)
83 | 16.5 | CCCCCCCCCCCN
84 | 114 to 116 | SC1=NNC(c2ccccn2)S1 (stereo not given)
85 | 177 | O=C(O)c1cc([N+](=O)[O-])cc(S(=O)(=O)Nc2ccccc2)c1
86 | 148 to 150 | COC(=O)C1(Br)CCC(Br)(C(=O)OC)CC1 (stereo not given)
87 | 64 | CC12C=C(C(=O)Oc3ccccc3)C(CC1)C2(C)C (stereo not given)
88 | 86 | COc1ccc(-n2ncc(C(=O)Cl)c2C)cc1
89 | 160 | FC(F)(F)c1nnc2sc(=S)[nH]n12
90 | 151 | O=C(O)c1c(F)c(F)cc(F)c1F
91 | 196 to 197 | CS(=O)(=O)CN1C(=O)NC(c2ccccc2)(c2ccccc2)C1=O
92 | 130 to 131 | CCOC(=O)c1c(C)sc(Sc2ccccc2[N+](=O)[O-])c1OC(C)=O

Row | melting point [°C] | Structure (SMILES)
93 | 51 to 53 | CNCc1ccc(-c2noc(C)n2)cc1
94 | 30 | O=C(Cl)c1cccc(Cl)c1Cl
95 | 100 | O=C1OC(=Cc2ccccc2)c2ccccc21
96 | 55 | CCCCCCCCCCCCCCCCOCCCCCCCCCCCCCCCC
97 | 24.5 | CCCCCCCCCCCCCCC=O
98 | 67 to 69 | Ic1ccccc1Cn1cncn1
99 | 165 to 168 | Cc1c(S(=O)(=O)c2ccc(Cl)cc2)csc1C(=O)NN
100 | 82 | O=C(c1ccccc1)c1ccc(OCc2ccccc2)cc1
101 | 116 to 118 | OCc1snnc1-c1ccccc1
102 | 161 | CC1Cc2ccccc2N1NC(=O)c1ccc(Cl)c(S(N)(=O)=O)c1 (stereo not given)
103 | 11 | OCCNc1ccccc1
104 | 60 | CCS(N)(=O)=O
105 | 182 | CC(C)=NNC(N)=O
106 | 42 | Fc1cccc(CBr)c1C(F)(F)F
107 | 181 | OCC1OC(n2cnc3cncnc32)C(O)C1O (stereo not given)
108 | 50 to 51 | Cc1cc(CO)nn1C
109 | 9.7 | O=C(O)CC(F)(F)F
110 | 138 to 140 | COC(=O)c1cc2ccccc2c(OC(=O)c2ccccc2C)c1C(=O)OC
111 | 196 | COC(=O)c1ccccc1S(=O)(=O)NC(=O)Nc1nc(OC(F)F)cc(OC(F)F)n1
112 | 273 | CC1=NC(C)CNc2c1c(=O)n(-c1ccccc1)c1ccccc21 (stereo not given)

Row | Structure (SMILES) | melting point [°C]
113 | O=C(NC(=O)c1c(F)cccc1F)Nc1ccc(CON=C(c2ccc(Cl)cc2)C2CC2)cc1 | 144
114 | CSSC | -85
115 | O=[N+]([O-])N1CCCCC1 | -5.5
116 | O=C(OC(=O)C(Cl)Cl)C(Cl)Cl | 29
117 | COC(=O)C1=C(C(=O)OC)[C@@H]2C=C[C@H]1c1cc3ccccc3c(-c3ccccc3)c12 | 219
118 | C=CCC#N | -87
119 | O=C1NC(=O)C(=NO)C(=O)N1 | 236 to 242
120 | CC(C)[C@H](N)P(=O)(O)O | 270
121 | CCCCCCCCC(=O)NCc1ccc(O)c(OC)c1 | 57
122 | Oc1c(Cl)cc(Cl)c2ccccc12 | 108
123 | c1ccc2c(c1)CCc1ccccc1N2C1CN2CCC1CC2 (stereo not given) | 150
124 | CCN(Cc1ccc(Cl)nc1)C(=C[N+](=O)[O-])NC | 83.5
125 | Cc1cc(O)no1 | 86.5
